# Values joined by “and” are separate entries in the source; they are usually repeats but may differ in a detail not shown here. Identical values can stand only once.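 Each compound was tested at five concentrations against cells in 96-well plates for 48 hours. Abbreviation: GI50, concentration required for 50% inhibition of growth. The concentration for full growth arrest is given as TGI.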
# Columns and labels:
# Assay in all cases: NCI tumour cell line growth inhibition, 48 h
# [1] = test system: SW-620 colon
# [2] = test system: T-47D breast
# [3] = test system: HL-60(TB) leukemia
# [4] = test system: RXF 393 renal
# [5] = test system: K-562 leukemia
# [6] = test system: EKVX NSCLC
# [7] = test system: SK-OV-3 ovarian
# [8] = test system: SNB-19 CNS
# [9] = test system: SNB-75 CNS
# [10] = test system: MDA-MB-231 breast
SMILES,GI50 [1] [nM],TGI [1] [µM],GI50 [2] [nM],TGI [2] [µM],GI50 [3] [µM],TGI [3] [µM],GI50 [4] [nM],TGI [4] [µM],GI50 [5] [nM],TGI [5] [µM],GI50 [6] [nM],TGI [6],GI50 [7] [nM],TGI [7] [µM],GI50 [8] [nM],TGI [8] [µM],GI50 [9] [nM],TGI [9] [µM],GI50 [10] [nM],TGI [10] [µM]
COc1ccc(-c2cn(-c3cc(OC)c(OC)c(OC)c3)c(SCc3ccccc3)n2)cc1OC,> 100000,> 100,41500,> 100,> 100,> 100,> 100000,> 100,> 100000,> 100,> 100000,> 100 µM,> 100000,> 100,> 100000,> 100,82300,> 100,> 100000,> 100
COC(=O)C1(C)CCC(c2ccc(C)cc2)=C(CC(=O)O)C1 (configuration not stated),,> 100,,> 100,,> 100,,> 100,,> 100,,> 100 µM,,> 100,,> 100,,> 100,,> 100
COc1c(C)c2c(c(O)c1C/C=C(\C)CCC(=O)O)C(=O)OC2,167,> 100,663,> 100,0.639,> 100,604,> 100,123,> 100,892,> 100 µM,571,> 100,286,> 100,938,> 100,956,> 100
FC(F)(F)c1ccc(Nc2nc(-c3c(C(F)(F)F)nc4ccccn34)cs2)cc1,37.3,12.3,45.3,9.07,0.0406,2.25,38.9,0.316,39.6,8.18,158,7.84 µM,49.1,5.03,62.5,18.5,29.1,1.05,810,6.93
Cc1cc(O)c(C(C)C)cc1S(=O)(=O)O (tested in a mixture with another compound),404,,856,4.79,0.279,,213,,375,,678,> 100 µM and 14.3 µM,270,,423,,378,,377,1.65
Cc1ccc(S(=O)(=O)N/N=C/c2c(O)ccc3ccccc23)cc1,,> 100,,> 100,,> 100,,42.4,,> 100,,> 100 µM,,84.6,,> 100,,74.3,,70.7
CN(O)c1nc(N(C)O)nc(N2CCOCC2)n1,11200,> 100,8070,> 100,16,> 100,6150,> 100,> 100000,> 100,1900,> 100 µM,12600,> 100,7350,> 100,27200,> 100,7000,> 100
CC(C)[C@H](N)C(=O)N1CCC[C@H]1B(O)O,> 100000,> 100,> 100000,> 100,> 100,> 100,> 100000,> 100,> 100000,> 100,> 100000,> 100 µM,> 100000,> 100,> 100000,> 100,> 100000,> 100,> 100000,> 100
C#Cc1c(F)ccc2cc(O)cc(-c3ncc4c(N5CC6CCC(C5)N6)nc(OC[C@@]56CCCN5C[C@H](F)C6)nc4c3F)c12,1320,10.3,16300,40.1,8.23,26.6,13500,27.5,8120,> 65.5,21700,> 54.6 µM,17700,35.6,13400,26.3,17100,46.4,2360,13.7
CCN(CC)CCCCNc1c2ccccc2[n+](C)c2c1[nH]c1ccccc12,395,7.47,178,1.1,5.69,> 31,402,2.16,379,3.9,298,3.16 µM,366,3.72,269,2.03,297,1.27,,> 20.3

# Source: PubChem BioAssay (NCI)
